Experimental data: US20230255957A1, “VIRAL ENTRY INHIBITORS AND RNA POLYMERASE INHIBITORS” (SELVA THERAPEUTICS, INC., priority 2020, published 2023)
Several values for one entry are separate records, joined by “and”; a condition that tells them apart may be missing. Equal values may be shown once. Read-outs that look alike come from different tables or passages of the source.

Key:
SARS-CoV-2 [1] = test: In vitro cytopathogenic effect / EC100 assay, K11777 and Remdesivir, Vero E6; assay type: cell-based; settings: for EC100: compound alone
Experimental: (§1) Controlled in vitro assays were conducted to measure the concentrations of K11777 and Remdesivir in combination required to induce 100% maximal response (EC100) for SARS-CoV-2 activity in the Vero E6 cell line. The concentrations of the combination are also compared to the concentrations required for each compound to achieve the same result individually.
The designation “ND” indicates no cytopathogenic effect was detected. The designation “C” indicates the composition itself caused a cytotoxic effect. The designation “n/a” means no observation was made.

SARS-CoV-2 [2] = test: In vitro cytopathogenic effect / EC100 assay, K11777 and EIDD-1931, Vero E6; assay type: cell-based; settings: for EC100: compound alone
Experimental: as §1, with “EIDD-1931” for “Remdesivir”
Table 4 is split into two portions (a) and (b) above to accommodate page size. The first columns of 4(a) and (b) show concentration values from 10 μM (micromolar) to 0.078 μM. […] The designation “ND” indicates no cytopathogenic effect was detected.

SARS-CoV-2 [3] = test: microbe, parasite or virus in culture; assay type: cell-based; settings: read-out: Inhibition of Viral Infectivity EC50
[4] = Cytotoxicity to host cells, Vero E6; assay type: cell-based; settings: African green monkey
Experimental: (§2) Controlled […] assays were conducted to measure the half-maximal effective concentration (EC50) of K777 required to prevent entry of SARS-CoV-2 in various cell lines, as well as cytotoxicity to the host cells (CC50).

[5] = Cytotoxicity to host cells, A549/ACE2; assay type: cell-based; settings: human
Experimental: as §2

[6] = Cytotoxicity to host cells, HeLa/ACE2; assay type: cell-based; settings: human
Experimental: as §2

[7] = Cytotoxicity to host cells, Calu-3; assay type: cell-based; settings: human, Calu-3 cells
Experimental: as §2

SARS-CoV-2 [8] = test: Initial pilot study, non-human primate model, organ assessment at autopsy; assay type: in vivo, African Green Monkey; settings: 100 mg/kg/day, 7 days, pretreated; autopsy day 7
Experimental: An initial pilot study was conducted to determine the potential for efficacy of K777 against SARS-CoV-2 in a non-human primate model (African Green Monkey). The study included six subjects (N=6), with two controls receiving vehicle only and four receiving K777. Each subject was pretreated with K777 (100 mg/kg) or placebo (control). Each subject was then inoculated with SARS-CoV-2 at […] (3-4 hours after first dose of K777). Each subject was then treated with K777 for 6 additional days (7 days total) (100 mg/kg/day). Each subject was then sacrificed and an autopsy was performed at day 7. During the study, daily measurement of viral titers was performed via BAL, nasal swabs, and pharyngeal swabs. During autopsy, organ assessment was performed. The results are shown in Table 2.1 below and depicted in FIG. 4.

SARS-CoV-2 [9] = test: Follow up pilot study, non-human primate model, organ assessment at autopsy; assay type: in vivo, African Green Monkey; settings: for Lung weight % of weight / Lung weight Left lobe / Lung weight Right lobe / Lung weight Total: 7 days, autopsy day 7
Experimental: Following the initial pilot study, a follow up pilot study was conducted to further explore the potential for efficacy of K777 against SARS-CoV-2 in a non-human primate model (African Green Monkey). The study included eight subjects (N=8), with two controls and six receiving K777. Unlike in the initial pilot, in this follow-up pilot no subjects were pretreated with K777. Each subject was inoculated with SARS-CoV-2 for 8 hours. Each subject was then treated with K777 for 7 days (33 mg/kg/day (n=3) or 100 mg/kg/day (n=3)) or placebo (n=2). Each subject was then sacrificed, and an autopsy was performed at day 7. During the study, measurements of viral load were determined from serial nasal and pharyngeal swabs as well as brochoalveolar fluid (BAL) samples. During autopsy, organ assessment was performed. The results are shown in Tables 2.2, 2.3, 2.4 and 2.5 below and depicted in FIGS. 5 to 12. FIGS. 7 to 10 depict histological slides of lung tissue taken from the subjects in the follow up pilot study after completion of the study. FIG. 6 depicts histological slides of lung tissue taken from a normal human lung and from a human lung with diffuse alveolar damage (DAD) for comparison. In FIGS. 7 to 10, NB numbers are subject identifiers. In FIGS. 8 to 10, “RL” means right lung and “LL” means left lung. FIG. 11 depicts the histopathology shown in FIGS. 8 to 10 in one chart for side-by-side comparison. FIG. 12 depicts viral load for each group on day 1 and day 7 of the follow up pilot study.

SARS-CoV-2 [10] = test: Follow up pilot study, viral load in pharyngeal and nasal swabs and BAL; assay type: in vivo, African Green Monkey
[11] = conc 0.1 μM (of K11777 in combinations)
[12] = conc 0.3 μM (of K11777 in combinations)
[13] = conc 1 μM (of K11777 in combinations)
[14] = conc 0.078 uM (of K777 in combinations), Vero E6
[15] = conc 0.3125 uM (of K777 in combinations), Vero E6
[16] = African Green Monkey, SARS-CoV-2

SMILES: CCC(CC)COC(=O)[C@H](C)N[P@](=O)(OC[C@H]1O[C@@](C#N)(c2ccc3c(N)ncnn23)[C@H](O)[C@@H]1O)Oc1ccccc1 [Remdesivir]
- EC100 (SARS-CoV-2 [1]): 3 µM
- cytopathogenic effect (SARS-CoV-2 [1]; conc 0.01 μM (of K11777 in combinations)): CPE
- cytopathogenic effect (SARS-CoV-2 [1]; conc 0.03 μM (of K11777 in combinations)): CPE
- cytopathogenic effect (SARS-CoV-2 [1]; [11]): CPE
- cytopathogenic effect (SARS-CoV-2 [1]; [12]): CPE
- cytopathogenic effect (SARS-CoV-2 [1]; [13]): CPE
- cytopathogenic effect (SARS-CoV-2 [1]; conc 3 μM (of K11777 in combinations)): CPE

SMILES: O=c1[nH]/c(=N\O)ccn1[C@@H]1O[C@H](CO)[C@@H](O)[C@H]1O [EIDD-1931, Beta-d-N4-hydroxycytidine, reference compound]
- cytopathogenic effect (SARS-CoV-2 [2]): CPE
- EC100 (SARS-CoV-2 [2]; Vero E6): 5 µM
- cytopathogenic effect (SARS-CoV-2 [2]; [14]): CPE
- cytopathogenic effect (SARS-CoV-2 [2]; [15]): CPE
- cytopathogenic effect (SARS-CoV-2 [2]; conc 2.5 uM (of K777 in combinations), Vero E6): CPE

SMILES: CN1CCN(C(=O)N[C@@H](Cc2ccccc2)C(=O)N[C@H](/C=C/S(=O)(=O)c2ccccc2)CCc2ccccc2)CC1 [K777]
- EC50 (SARS-CoV-2 [3]; Severe acute respiratory syndrome coronavirus 2, A549-ACE2, A549/ACE2): < 0.08 µM
- EC50 (SARS-CoV-2 [3]; Severe acute respiratory syndrome coronavirus 2, Calu-3, Calu-3): 3 to 5 µM
- EC50 (SARS-CoV-2 [3]; Severe acute respiratory syndrome coronavirus 2, HeLa-ACE2, HeLa/ACE2): 0.004 µM
- CC50 [4]: > 10 µM
- CC50 [5]: > 10 µM
- CC50 [6]: > 10 µM
- CC50 [7]: > 10 µM
- Lung weight % of weight (SARS-CoV-2 [8]): 0.52% and 0.49% and 0.51% and 0.58%
- Lung weight Left lobe (SARS-CoV-2 [8]): 13.06 g and 12.79 g and 19.06 g and 21.72 g
- Lung weight Right lobe (SARS-CoV-2 [8]): 17.22 g and 16.99 g and 14.43 g and 16.84 g
- Lung weight Total (SARS-CoV-2 [8]): 30.28 g and 29.78 g and 33.49 g and 38.56 g
- Lymph enlargement (SARS-CoV-2 [8]): 2 fold and 2.5 fold
- Lung weight % of weight (SARS-CoV-2 [9]; 33 mg/kg/day): 0.66% and 0.95% and 0.54%
- Lung weight Left lobe (SARS-CoV-2 [9]; 33 mg/kg/day): 24 g and 28 g and 17 g
- Lung weight Right lobe (SARS-CoV-2 [9]; 33 mg/kg/day): 20 g and 28 g and 24 g
- Lung weight Total (SARS-CoV-2 [9]; 33 mg/kg/day): 44 g and 56 g and 41 g
- Lung weight % of weight (SARS-CoV-2 [9]; 100 mg/kg/day): 0.50% and 0.46% and 0.56%
- Lung weight Left lobe (SARS-CoV-2 [9]; 100 mg/kg/day): 14 g and 15 g
- Lung weight Right lobe (SARS-CoV-2 [9]; 100 mg/kg/day): 18 g and 19 g
- Lung weight Total (SARS-CoV-2 [9]; 100 mg/kg/day): 32 g and 33 g and 34 g
- lung damage (histopathology) (SARS-CoV-2 [9]; [16]): protected the lung against diffuse alveolar damage (DAD) and ARDS-like lung damage
- lung to body weight ratios (SARS-CoV-2 [9]; both pilot studies): able to maintain normal lung to body weight ratios
- Viral Load -- Subgenomic E (SARS-CoV-2 [10]; 30 mg/kg/day, BAL, d5): 3.69E+04 Eq. VC/mL
- Viral Load -- Subgenomic E (SARS-CoV-2 [10]; 30 mg/kg/day, Nasal, d3): 1.62E+06 Eq. VC/mL
- Viral Load -- Subgenomic E (SARS-CoV-2 [10]; 30 mg/kg/day, Nasal, d5): 2.07E+04 Eq. VC/mL and 1.91E+04 Eq. VC/mL
- Viral Load -- Genomic N1 (SARS-CoV-2 [10]; 30 mg/kg/day, Phary, d3): 1.11E+09 Eq. VC/mL and 1.87E+09 Eq. VC/mL
- Viral Load -- Genomic N1 (SARS-CoV-2 [10]; 100 mg/kg/day, BAL, d1): 3.38E+08 Eq. VC/mL and 2.69E+08 Eq. VC/mL
- Viral Load -- Subgenomic E (SARS-CoV-2 [10]; 100 mg/kg/day, BAL, d3): 2.45E+06 Eq. VC/mL and 1.58E+06 Eq. VC/mL
- Viral Load -- Subgenomic N (SARS-CoV-2 [10]; 100 mg/kg/day, BAL, d3): 1.31E+07 Eq. VC/mL and 7.93E+06 Eq. VC/mL
- Viral Load -- Subgenomic N (SARS-CoV-2 [10]; 100 mg/kg/day, BAL, d7): 1.40E+05 Eq. VC/mL
- Viral Load -- Subgenomic E (SARS-CoV-2 [10]; 100 mg/kg/day, Nasal, d3): 7.94E+07 Eq. VC/mL
- Viral Load -- Subgenomic N (SARS-CoV-2 [10]; 100 mg/kg/day, Nasal, d7): 4.19E+06 Eq. VC/mL
- Viral Load -- Subgenomic E (SARS-CoV-2 [10]; 100 mg/kg/day, Phary, d3): 3.34E+07 Eq. VC/mL and 2.04E+07 Eq. VC/mL and 3.29E+07 Eq. VC/mL
- Viral Load -- Subgenomic N (SARS-CoV-2 [10]; 100 mg/kg/day, Phary, d7): 3.64E+07 Eq. VC/mL and 5.51E+07 Eq. VC/mL
- viral load as compared to the vehicle (SARS-CoV-2 [10]; [16]): significantly reduced viral load as compared to the vehicle
- EC100 (SARS-CoV-2 [1]): 1 µM
- cytopathogenic effect (SARS-CoV-2 [1]; [11]): CPE
- cytopathogenic effect (SARS-CoV-2 [1]; [12]): CPE
- cytopathogenic effect (SARS-CoV-2 [1]; [13]): CPE
- EC100 (SARS-CoV-2 [2]; Vero E6): 2.5 µM
- cytopathogenic effect (SARS-CoV-2 [2]; [14]): CPE
- cytopathogenic effect (SARS-CoV-2 [2]; conc 0.156 uM (of K777 in combinations), Vero E6): CPE
- cytopathogenic effect (SARS-CoV-2 [2]; [15]): CPE
- cytopathogenic effect (SARS-CoV-2 [2]; conc 0.625 uM (of K777 in combinations), Vero E6): CPE
- cytopathogenic effect (SARS-CoV-2 [2]; conc 1.25 uM (of K777 in combinations), Vero E6): CPE
